Laboratory results published in PubChem BioAssay (NCI).
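Protocol summary: plate cells (96-well), add compound at 5 concentrations, incubate 48 h, interpolate endpoints linearly. The concentration for full growth arrest is given as TGI.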

Legend:
Assay in all cases: growth of human tumour cells (NCI), 48 h
[1] = test system: 786-0 renal
[2] = test system: A498 renal
[3] = test system: A549 NSCLC
[4] = test system: ACHN renal
[5] = test system: BT-549 breast
[6] = test system: CAKI-1 renal
[7] = test system: CCRF-CEM leukemia
[8] = test system: COLO 205 colon
[9] = test system: DU-145 prostate
[10] = test system: EKVX NSCLC
[11] = test system: HCT-116 colon
[12] = test system: HCT-15 colon
[13] = test system: HL-60(TB) leukemia
[14] = test system: HOP-62 NSCLC
[15] = test system: HOP-92 NSCLC
[16] = test system: HS 578T breast
[17] = test system: HT29 colon
[18] = test system: IGROV1 ovarian
[19] = test system: K-562 leukemia
[20] = test system: KM12 colon
[21] = test system: LOX IMVI melanoma
[22] = test system: M14 melanoma
[23] = test system: MALME-3M melanoma
[24] = test system: MCF7 breast
[25] = test system: MDA-MB-231 breast
[26] = test system: MDA-MB-435
[27] = test system: MDA-N
[28] = test system: MOLT-4 leukemia
[29] = test system: NCI-H226 lung
[30] = test system: NCI-H23 lung
[31] = test system: NCI-H522 lung
[32] = test system: NCI/ADR-RES ovarian
[33] = test system: OVCAR-3 ovarian
[34] = test system: OVCAR-4 ovarian
[35] = test system: OVCAR-5 ovarian
[36] = test system: OVCAR-8 ovarian
[37] = test system: PC-3 prostate
[38] = test system: RPMI-8226 leukemia
[39] = test system: SF-268 CNS
[40] = test system: SF-295 CNS
[41] = test system: SF-539 CNS
[42] = test system: SK-MEL-2 melanoma
[43] = test system: SK-MEL-28 melanoma
[44] = test system: SK-MEL-5 melanoma
[45] = test system: SK-OV-3 ovarian
[46] = test system: SN12C renal
[47] = test system: SNB-19 CNS
[48] = test system: SR leukemia
[49] = test system: SW-620 colon
[50] = test system: T-47D breast
[51] = test system: TK-10 renal
[52] = test system: U251 CNS
[53] = test system: UACC-62 melanoma
[54] = test system: UO-31 renal

Measured: TGI

COc1ccc2c3c1O[C@H]1C(=O)C=CC4(n5[nH]c(=O)n(-c6ccccc6)c5=O)C(C2)N(C)CCC314 (some centres undefined)
> 100 µM: all assays above
